Test results reported in patent publication US20090123447A1, “COMPOSITIONS AND METHODS TO INHIBIT RNA VIRAL REPRODUCTION” (priority 2007, published 2009).

Legend:
[1] = system: SgJFH1-Luc RNA (subgenomic JFH1 replicon); test: SgJFH1-Luc RNA replication in Huh7 cells, luciferase assay; type: cell-based, hepatitis C virus; settings: Huh7 cells transfected with SgJFH1-Luc RNA
Description: (§1) For viral RNA transfection, JFH1, JFH1/GND, and pSGR-JFH1-Luc were linearized with XbaI and used to synthesize the corresponding positive-sense stranded HCV RNA, as previously described (68). Then, 5×10^6 Huh7 cells were rinsed with Opti-Mem (Invitrogen), mixed briefly with 10-20 μg of the in vitro transcribed RNA in 0.4 ml of Opti-Mem, and then electroporated at 260 volts and 950 μF. […] Medium was changed daily. For infection with HCV, medium collected from JFH1 RNA-transfected cells were cleared of cell debris, as described, and added to naïve Huh7 cells. Typically, 1:2 or 3:2 ratio of the virus-containing medium and fresh cell culture medium were used.
SgJFH1-Luc RNA replication was also monitored by firefly luciferase reporter assay, using a kit from Promega.
To investigate whether the HCV RNA replication is modulated by ROS, Huh7 cells were transfected with the SgJFH1-Luc RNA and treated with GO plus glucose.
After 24 and 48 hours, respectively, the cells were collected in PBS, centrifuged, lysed in the reporter lysis buffer (Promega), and analyzed for luciferase activity.

GSH [2] = test: Intracellular GSH content in Huh7 cells (unpublished observation); type: cell-based, human; settings: twenty to 100 μM BSO
[3] = system: subgenomic HCV replicon of genotype 1b; test: microbe, parasite or virus in culture; type: cell-based, hepatitis C virus; settings: SgPC2 cells, Northern blot
Description: Huh7 human hepatoma cells were cultured in Dulbecco's modified Eagle medium (DMEM; Invitrogen, Carlsbad, Calif., USA) supplemented with 10% fetal bovine serum (FBS; Invitrogen), 100 units/ml of penicillin, and 100 μg/ml of streptomycin in a 5% CO2 incubator. SgPC2 cells are G418-selected, pooled Huh7 cell clones that support the continuous replication of a subgenomic HCV replicon of genotype 1b and [29] (GenBank Accession No. AJ242652) that carries a S11791 adaptive mutation within the NS5A region. SgPC2 cells were maintained in the above medium supplemented with 0.5 mg/ml G418 (Invitrogen). G418 was removed at least 1 day before cell treatments.

JFH1 HCV (genotype 2a) = type: cell-based, hepatitis C virus; settings: JFH1-transfected cells, 20 uM
Description: as §1
JFH1/GND was used as the negative control. When L-buthionine S,R-sulfoximine (BSO) was used, the cells were pretreated with BSO for 16-24 hrs prior to the initiation of treatments.
Intracellular JFH1 HCV RNA content was also analyzed by qRT-PCR (Taqman), using ABI7300 real time PCR system and one step RT-PCR kit from Applied Biosystems. The forward primer was 5′-[…]-3′ (nt. 146 to 164) and the reverse primer, 5′-[…]-3′ (nt. 277 to 295). The probe was 5′[…]3′ (nt. 168 to 188) and was fluorogenically labeled with FAM (5′) and TAMRA (3′) (Biosearch Technologies, Novato, Calif.). Briefly, the reactions were carried out at 48° C. for 30 min for reverse transcription, followed by denaturation at 95° C. for 10 min, and then 50 cycles of 15 sec denaturation at 95° C. plus 60 sec of annealing and extension at 60° C. All samples were analyzed in duplicates or triplicates. In vitro RNA transcripts were used to generate standard curve to determine RNA copy numbers. The level of 18S rRNA was also analyzed, using manufacturer-optimized protocol, as the control.
To analyze the amount of the extracellular HCV RNA, medium from the cells were cleared by low-speed centrifugation and then, treated with RNaseA at room temperature. Then, the RNA samples were extracted, using Trizol LS Reagent (Invitrogen), and analyzed for HCV RNA content by qRT-PCR.

[4] = system: intracellular calcium concentration ([Ca^2+]i); test: [Ca^2+]i measurement with Indo-1 AM in SgPC2 cells; type: cell-based, human; settings: BSO-treated cells, after 24 h
Description: Briefly, on the day of the experiment, cells were washed in Krebs-Ringer phosphate buffer (KRPH; pH 7.4, containing 1.0 mM MgSO4, 1.3 mM CaCl2, 10 mM Hepes, 5 mM glucose, 125 mM NaCl, 5 mM KCl, and 10 mM sodium phosphate) and subsequently loaded with 10-20 μM Indo-1 AM (70 μl/coverslip; Molecular Probes, Inc., Eugene, Oreg., USA) containing 10 μM probenecid (Molecular Probes) for 30 min at 37° C. The attached cells were washed and bathed in KRPH/probenecid at 4° C. or room temperature until further analysis. Then, coverslips were individually submerged into KRPH and preequilibrated inside the […] fluorimeter (Hitachi) in darkness for 3 min, and [Ca^2+]i was monitored continuously at 37° C., with excitation at […] and emission at 400 and 450 nm. H2O2 and other agents were injected at different time points, as indicated under Results. [Ca^2+]i was calculated as described. Rmax was determined by adding 8-16 μM digitonin and Rmin with 10 mM ethylene glycol-bis(β-aminoethyl)-N,N,N'-tetraacetic acid (EGTA). […] The baseline, which represented unstimulated cells scanned over time, was plotted along with other measurements or subtracted from the other plots. Cells were serum-depleted, 1 day before the experiment, by incubating them overnight in DMEM plus 0.5% FBS. […] Then, CaCl2 was added before determining the Rmax for each run.

GSH [5] = test: Intracellular glutathione (GSH) in SgPC2 cells, GSH recycling assay; type: cell-based, human; settings: 20-40 μM BSO, 24 h
Description: Intracellular GSH concentration was determined using a GSH recycling assay [35] and expressed as nmol/mg protein. ATP level was measured using the Somatic Cell ATP assay kit from Sigma-Aldrich, as previously described [32]. Protein level was determined with a bicinchoninic acid kit (Pierce Biotechnology, Inc., Rockford, Ill., USA).

JFH1-transfected cells = test: ATP concentration as cytotoxicity measure in JFH1-transfected cells
Description: Determination of ATP concentrations—ATP level was measured, using Somatic Cell ATP Assay kit from Sigma-Aldrich, as previously described (68). Protein level was determined with bicinchoninic acid kit (Pierce Biotechnology, Inc., Rockford, Ill.).
ATP concentration was measured to determine if the treatments were cytotoxic to the cells.

`CCCCS(=N)(=O)CCC(N)C(=O)O` (stereo not shown) [BSO, 1-buthionine S,R-sulfoximine, reference compound] was tested, and the “HCV RNA level by luciferase activity” value [1] was “further suppressed HCV RNA”, the “decrease of intracellular GSH content” value (GSH [2]) was “about 60%” and the “effect on HCV RNA level / replication” value [3] was “sufficient to decrease the HCV RNA level”. The “intracellular HCV RNA level” value (JFH1 HCV (genotype 2a)) was “significant suppression”, the intracellular calcium concentration [4] was 60.6 ± 4.3 nM and the “decrease of total intracellular GSH concentration” value (GSH [5]) was “about 75%”. The “cytotoxicity (ATP concentration, cell survivability)” value (JFH1-transfected cells) was “did not cause any loss in cell survivability”.
